From US12391679B2, “Benzamide-substituted bicyclic imidazo- and pyrazolo-fused -pyridine, -pyrimide, and -pyridazine compounds for treatment of inflammatory diseases” (ONCO3R Therapeutics BV, priority 2019, dated 2025) come the findings set out here.

For assay [1], the system named is Balb/c mice, IL-23 injected ear. The assay is described as follows: Murine model of psoriatic-like epidermal hyperplasia induced by intradermal injections of IL-23. The format is in vivo. To be noted: mouse, intradermal IL-23. On the procedure: Mouse recombinant IL-23, carrier free (Cat #14-8231) is provided by e-Bioscience (Frankfurt, Germany).
Balb/c mice (female, 18-20 g body weight) were obtained from Janvier Labs (Le Genest-Saint-Isle, France). Mice are kept on a 12 h light/dark cycle. Temperature was maintained at 22° C., food and water are provided ad libitum.
The design of the study was adapted from Rizzo H L. et al. (Rizzo et al. 2011).
On the first day (D1), the mice were shaved around the two ears. For 4 consecutive days (D1 to D4), the mice received a daily intradermal dose of mouse recombinant IL-23 (1 μg/20 μL in PBS/0.1% BSA) in the right pinna ear and 20 μL of PBS/0.1% BSA in the left pinna ear under anesthesia.
From D1 to D5, mice were dosed with test-compound or with vehicle, 1 h prior IL-23 injection.
The thickness of both ears was measured daily with an automatic caliper. Body weight was assessed at initiation and at sacrifice. On fifth day, 2 h after the last dosing, the mice were sacrificed. The pinnae of the ear were cut, excluding cartilage. The pinnae, placed in a vial containing 1 mL of RNAlater® solution.
There were 8 mice per group. The results were expressed as mean±SEM and statistical analysis was performed using one-way ANOVA followed by Dunnett's post-hoc test versus IL-23 vehicle groups.

For another assay, the target named is T1, SIK1 (Homo sapiens, UniProt P57059).
T1 construct: purchased Carna Biosciences 02-131
T1 sequence (P57059 whole entry): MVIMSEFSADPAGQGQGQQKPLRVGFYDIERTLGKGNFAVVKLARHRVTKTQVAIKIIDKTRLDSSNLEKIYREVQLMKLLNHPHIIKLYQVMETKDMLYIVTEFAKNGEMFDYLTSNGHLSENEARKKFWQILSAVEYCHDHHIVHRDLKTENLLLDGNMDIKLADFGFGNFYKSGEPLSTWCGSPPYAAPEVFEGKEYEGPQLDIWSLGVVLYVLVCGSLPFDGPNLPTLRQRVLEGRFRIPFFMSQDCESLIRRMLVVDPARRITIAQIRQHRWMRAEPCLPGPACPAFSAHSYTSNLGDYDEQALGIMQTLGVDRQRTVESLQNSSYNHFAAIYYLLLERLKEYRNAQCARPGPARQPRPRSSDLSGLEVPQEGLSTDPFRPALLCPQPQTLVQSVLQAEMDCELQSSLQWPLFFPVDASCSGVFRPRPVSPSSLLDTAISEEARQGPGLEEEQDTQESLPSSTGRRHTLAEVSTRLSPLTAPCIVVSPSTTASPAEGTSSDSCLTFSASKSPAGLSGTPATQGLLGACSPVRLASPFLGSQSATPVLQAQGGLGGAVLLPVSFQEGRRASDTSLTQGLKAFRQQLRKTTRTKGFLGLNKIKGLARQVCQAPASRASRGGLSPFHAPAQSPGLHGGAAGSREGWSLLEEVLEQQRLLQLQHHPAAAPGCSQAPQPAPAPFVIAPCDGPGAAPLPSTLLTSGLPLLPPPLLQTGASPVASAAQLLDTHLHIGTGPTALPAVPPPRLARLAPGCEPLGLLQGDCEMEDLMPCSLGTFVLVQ
The assay is described as follows: 33P radioactive kinase assay, SIK1. The format is biochemical. An outline of the steps: (§1)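 SIK1, SIK2 or SIK3 phosphorylation of AMARA peptide with [33P]-γ-ATP plus unlabeled ATP. 10-point 1/5 dilution series, 1% DMSO final; reactions stopped with phosphoric acid, filter-harvested and scintillation-counted. Percentage inhibition and average IC50 derived from dose-response curves.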

Another assay deals with T2, SIK2 (Homo sapiens, UniProt Q9H0K1).
T2 construct: purchased ThermoFisher Scientific PV4792
T2 sequence (Q9H0K1 whole entry): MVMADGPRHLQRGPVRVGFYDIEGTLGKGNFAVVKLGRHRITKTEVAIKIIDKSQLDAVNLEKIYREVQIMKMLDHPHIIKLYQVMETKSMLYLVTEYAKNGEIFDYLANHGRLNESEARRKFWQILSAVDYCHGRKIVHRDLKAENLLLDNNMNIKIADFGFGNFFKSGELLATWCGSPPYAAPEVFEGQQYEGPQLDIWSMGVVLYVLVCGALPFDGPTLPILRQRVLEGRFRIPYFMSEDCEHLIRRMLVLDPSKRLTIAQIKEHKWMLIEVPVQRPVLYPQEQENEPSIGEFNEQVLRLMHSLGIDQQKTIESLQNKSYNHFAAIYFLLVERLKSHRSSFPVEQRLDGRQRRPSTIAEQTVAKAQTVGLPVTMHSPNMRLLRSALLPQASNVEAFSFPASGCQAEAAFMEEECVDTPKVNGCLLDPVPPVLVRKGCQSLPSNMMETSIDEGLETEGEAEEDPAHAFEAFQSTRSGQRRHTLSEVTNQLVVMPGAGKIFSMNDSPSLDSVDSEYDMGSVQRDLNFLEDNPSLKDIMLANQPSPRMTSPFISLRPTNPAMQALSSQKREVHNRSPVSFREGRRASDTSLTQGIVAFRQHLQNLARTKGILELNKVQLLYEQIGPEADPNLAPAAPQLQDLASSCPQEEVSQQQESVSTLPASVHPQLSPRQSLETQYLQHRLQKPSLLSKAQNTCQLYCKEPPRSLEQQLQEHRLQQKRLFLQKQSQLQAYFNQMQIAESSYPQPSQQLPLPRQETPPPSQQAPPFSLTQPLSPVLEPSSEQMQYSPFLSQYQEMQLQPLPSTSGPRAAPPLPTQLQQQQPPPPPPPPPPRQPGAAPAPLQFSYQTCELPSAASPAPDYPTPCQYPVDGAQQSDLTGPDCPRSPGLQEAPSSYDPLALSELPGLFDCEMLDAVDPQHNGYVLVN
In words: 33P radioactive kinase assay, SIK2. Further: AMARA 5 µM, 10 µM ATP. The format is biochemical. Put shortly: as §1

Another assay relates to mouse CIA model. The assay is described as follows: Collagen induced arthritis (CIA) model. The assay is classed as in vivo. On the procedure: Completed Freund's adjuvant (CFA) and incomplete Freund's adjuvant (IFA) were purchased from Difco. Bovine collagen type II (CII), lipopolysaccharide (LPS), and Enbrel® (etanercept) were obtained from Chondrex (L'Isle d'Abeau, France); Sigma (P4252, L'Isle d'Abeau, France), Wyeth (25 mg injectable syringe, France), respectively. All other reagents used were of reagent grade and all solvents were of analytical grade.
DBA1/J mice (male, 7-8 weeks old) were obtained from Charles River Laboratories (Écully, France). Mice were kept on a 12 h light/dark cycle. Temperature was maintained at 22° C., and food and water were provided ad libitum.
One day before the experiment, CII solution (2 mg/mL) was prepared with 0.05 M AcOH and stored at 4° C. Just before the immunization, equal volumes of adjuvant (IFA) and CII were mixed by a homogenizer in a pre-cooled glass bottle in an ice water bath. Extra adjuvant and prolonged homogenization may be required if an emulsion is not formed. 0.2 mL of the emulsion was injected intradermally at the base of the tail of each mouse on day 1, a second booster intradermal injection (CII solution at 2 mg/mL in […] 0.1 mL saline) was performed on […]. This immunization method was modified from published methods (Jou et al. 2005; Sims et al. 2004).
The therapeutic effects of the compounds were tested in the mouse CIA model. Mice were randomly divided into equal groups and each group contained 10 mice. All mice were immunized on day 1 and boosted on day 21. The negative control group was treated with vehicle (MC 0.5%) and the positive control group with Enbrel® (10 mg/kg, 3× week, sc). A compound of interest was typically tested at 3 doses per os (p.o.). At day 32, randomization between groups was performed with respect with clinical score and animals were therapeutically treated regarding their group until day 47. Body weight and clinical score, were recorded at least twice a week.
Arthritis is scored according to the method of Khachigian 2006, Lin et al 2007 and Nishida et al. 2004 (Khachigian 2006; Lin et al. 2007; Nishida et al. 2004). […]

As usually defined, the IC50 is the concentration that inhibits the measured activity by half.

On to `COc1cc(-c2cnc3cc(C4(C#N)COC4)ccn23)cc(OC(F)F)c1C(=O)NC1CC1` [Cpd 117, 4-[7-(3-cyanooxetan-3-yl)imidazo[1,2-a]pyridin-3-yl]-N-cyclopropyl-2-(difluoromethoxy)-6-methoxy-benzamide], for which, in assay [1] (30 mg/kg p.o. b.i.d.), the “ear thickness compared to IL-23 vehicle group” value was “statistically significant decrease”.
Regarding `COc1cc(-c2cnc3cc(C(C)(C)C#N)ccn23)cc(OC(F)F)c1C(=O)NC1CC1` [Cpd 19, 4-[7-(1-cyano-1-methyl-ethyl)imidazo[1,2-a]pyridin-3-yl]-N-cyclopropyl-2-(difluoromethoxy)-6-methoxy-benzamide], the IC50 at SIK1 and at SIK2 was over 500 nM in each case. For the same compound, the “ear thickness compared to IL-23 vehicle group” value in assay [1] (10 mg/kg p.o. b.i.d.) is “statistically significant decrease”.
Turning to `CCC(C)(C#N)c1ccn2c(-c3cc(OC)c(C(=O)NC4CC4)c(OC(F)F)c3)cnc2c1` (centres unmarked) [Cpd 27, 4-[7-(1-cyano-1-methyl-propyl)imidazo[1,2-a]pyridin-3-yl]-N-cyclopropyl-2-(difluoromethoxy)-6-methoxy-benzamide], the IC50 on SIK1 and on SIK2 was over 500 nM each time.
Regarding `COc1cc(-c2cnc3cc(C4COC4)ccn23)cc(OC(F)F)c1C(=O)NC1CC1` [Cpd 174, N-cyclopropyl-2-(difluoromethoxy)-6-methoxy-4-[7-(oxetan-3-yl)imidazo[1,2-a]pyridin-3-yl]benzamide], the “clinical score compared to the vehicle group” value in the assay on mouse CIA model (60 mg/kg p.o. b.i.d.) was “statistically significant decrease”. Besides, the “ear thickness compared to IL-23 vehicle group” value in assay [1] (3 mg/kg p.o. b.i.d.) was “statistically significant decrease”.
For the compound `COc1cc(-c2cnn3cc(C4(N)CCC4)ccc23)cc(OC(F)F)c1C(=O)N[C@@H]1C[C@@H]1F` [Cpd 261, 4-[6-(1-aminocyclobutyl)pyrazolo[1,5-a]pyridin-3-yl]-2-(difluoromethoxy)-N-[(1R,2S)-2-fluorocyclopropyl]-6-methoxy-benzamide], the “clinical score compared to the vehicle group” value in the assay on mouse CIA model (30 mg/kg p.o. b.i.d.) is listed as “statistically significant decrease”.
As for `COc1cc(-c2cnc3cc(C(C)(C)C#N)ccn23)cc(OC)c1C(=O)NC1CC1` [Cpd 28, 4-[7-(1-cyano-1-methyl-ethyl)imidazo[1,2-a]pyridin-3-yl]-N-cyclopropyl-2,6-dimethoxy-benzamide], the IC50 on SIK1 and at SIK2 was over 500 nM throughout.
For `COc1cc(-c2cnn3cc(C(C)(C)C#N)ccc23)cc(OC(F)F)c1C(=O)N[C@@H]1C[C@@H]1F` [Cpd 219, 4-[6-(1-cyano-1-methyl-ethyl)pyrazolo[1,5-a]pyridin-3-yl]-2-(difluoromethoxy)-N-[(1R,2S)-2-fluorocyclopropyl]-6-methoxy-benzamide], in the assay on mouse CIA model (3 mg/kg p.o. b.i.d.), the “clinical score compared to the vehicle group” value was “statistically significant decrease”.
For the compound `COc1cc(-c2cnc3cc(C4(C#N)CC4)ccn23)cc(OC(F)F)c1C(=O)NC1CC1` [Cpd 33, 4-[7-(1-cyanocyclopropyl)imidazo[1,2-a]pyridin-3-yl]-N-cyclopropyl-2-(difluoromethoxy)-6-methoxy-benzamide], the IC50 at SIK1 is 100 to 500 nM; on SIK2, 10 to 100 nM.
